What was measured:
Raji cells [1] = assay: Raji tumor xenograft model, CAR-T cells expanded with inhibitor; assay type: in vivo, nod scid gamma (NSG) immunodeficient mice; details: for tumor burden (bioluminescence) compared with DMSO vehicle: low (0.25×10^6) or high (1.0×10^6) dose of CAR+ T cells expanded with the inhibitor; for survival compared to mice administered CAR-T cells expanded with DMSO vehicle: low or high dose of CAR-T cells expanded with the inhibitor
Description: Anti-tumor effects of the generated anti-CD19 CAR-T cell compositions, generated by expansion in the presence of PI-103, Compound 63 or media only as described in Example 2, was assessed. The tumor xenograft mouse model was generated by implanting nod scid gamma (NSG) immunodeficient mice with 0.5×10^6 Raji cells (an immortalized human B lymphocyte tumor cell line that expresses CD19), which were allowed to engraft. The Raji cells were transfected with firefly luciferase to facilitate detection by bioluminescence imaging. After seven days, mice either received no treatment, DMSO vehicle, or a low dose (0.25×10^6) or a high dose (1.0×10^6) dose of CAR+ T cells of the generated anti-CD19 CAR-T cell compositions. Tumor burden was assessed by bioluminescence weekly or every 10 days.

Raji cells [2] = assay: Raji tumor xenograft model, CAR-T cells prepared as in Example 7; assay type: in vivo, nod scid gamma (NSG) immunodeficient mice
Description: Anti-tumor effects of anti-CD19 CAR-T cell compositions prepared in the presence DMSO, PI-103 or Compound 63 as described in Example 7 were assessed in vivo. The tumor xenograft mouse model was generated by implanting nod scid gamma (NSG) immunodeficient mice with 0.5×10^6 Raji cells (an immortalized human B lymphocyte tumor cell line that expresses CD19), which were allowed to engraft. The Raji cells were transfected with firefly luciferase to facilitate measurement of tumor burden by bioluminescence imaging. After seven days, mice either received no treatment, or treatment with a low dose (0.25×10^6) or a high dose (1.0×10^6) of anti-CD19 CAR+ T cells prepared in the presence of DMSO (vehicle) or DMSO and a mTOR kinase inhibitor. Tumor burden and mortality were assessed weekly.

anti-CD19 CAR-T cells = assay: CAR-specific expansion with anti-idiotype antibody conjugated beads; assay type: cell-based, human; details: anti-idiotype beads 1:1, 15 days; relative to media only
Description: Separate compositions of CD4+ and CD8+ cells were isolated from three human donors, activated and transduced with a viral vector encoding an anti-CD19 CAR substantially as described in Example 2. After transduction, the CD4+ and CD8+ T cells derived from each donor were separately incubated for 8 days in the presence of a mTOR kinase inhibitor to expand T cells substantially as described in Example 2, except in the presence of 200 nM PI-103, 1 μM Compound 63, or with DMSO vehicle or media only controls. CD4+ and CD8+ T cells from each donor were then separately harvested, formulated, and cryofrozen. […] Functional activities of the generated anti-CD19 CAR-T cell compositions were assessed.
The ability of the cells to expand following stimulation of the CAR was assessed by incubating cells of the generated anti-CD19 CAR-T cell compositions with beads surface conjugated with an anti-idiotype antibody specific to the anti-CD19 CAR. […] The total live T cells per well was determined by counting cells in the cultures every 5 days (FIG. 8A). The mean area under the curve (AUC) as a function of T cell number over time was calculated relative to the AUC of cells expanded with media only (FIG. 8B).

CAR-T cells = assay: Expansion of CAR-T cells on CAR-specific beads for 14 days (mixed CD4+/CD8+ process); assay type: cell-based, human; details: CAR-T cells prepared with 2 μM PI103 or 1 μM Compound 63
Description: Separate compositions of CD4+ and CD8+ cells were selected from isolated PBMCs from a leukapheresis sample from the same human donor by immunoaffinity based selection, and the selected cell compositions were cryofrozen. The separate compositions of CD4+ and CD8+ T cells were subsequently thawed and mixed at a ratio of 1:1 of viable CD4+ T cells to viable CD8+ T cells. In this study, the mixed CD4+ and CD8+ cell populations were incubated in the presence of Compound 63, PI103 or no inhibitor (DMSO vehicle control) beginning at the initiation of stimulation. In more detail, the mixed CD4+ and CD8+ T cell composition was stimulated (in the presence or absence of an inhibitor, as indicated) in the presence of paramagnetic polystyrene-coated beads with attached anti-CD3 and anti-CD28 antibodies for between 18 to 30 hours, and were then transduced with a lentiviral vector encoding an anti-CD19 CAR. The CAR contained an scFv antigen-binding domain specific for CD19 (derived from FMC63), a CD28 transmembrane region, a 4-1BB costimulatory signaling region, and a CD3-zeta derived intracellular signaling domain. […]
Functional attributes of the generated CAR-T cells were assessed in a serial stimulation assay by incubation of the generated CAR-T cells antibody conjugated to beads. […] Every 3-4 days, T cells were, counted.

CD4+ and/or CD8+ T cells = assay: RNA-Seq gene expression of CAR-T cells expanded with inhibitor; assay type: cell-based, human; details: FDR≤10%
Description: Gene expression among cells of the generated anti-CD19 CAR-T cell compositions described in Example 2, generated by expanding the cells in the presence of PI-103, Compound 63, DMSO vehicle, or media only, was assessed by RNA sequencing (RNA-Seq). RNA was extracted from compositions generated from three donors under each expansion condition and an assessment of the whole-transcriptome was performed by RNA-Seq. FPKM and FPKQ values were determined; FPKQ values were log-transformed (log 2). Gene expression was determined by comparing expression profiles of CD4+, CD8+ or combined CD4+/CD8+ cells among cells of the generated anti-CD19 CAR-T cell compositions that were expanded in the presence of media only, PI-103, or Compound 63, as compared to cells expanded with DMSO vehicle. Gene products were identified that were different among each groups based on analysis of a volcano plot by imposing cutoff of FDR≤10% between the two conditions.

| SMILES | survival (Raji cells [1]; high dose of CAR-T cells expanded with the inhibitor, for at least 80 days following tumor cell implant) | tumor burden (bioluminescence) compared with DMSO vehicle (Raji cells [1]) | survival compared to mice administered CAR-T cells expanded with DMSO vehicle (Raji cells [1]) | in vivo anti-tumor responses compared to absence of inhibitor (DMSO vehicle) (Raji cells [2]; low (0.25×10^6) or high (1.0×10^6) dose of CAR+ T cells prepared with the inhibitor) | mean AUC of live T cell number over time compared to DMSO vehicle (anti-CD19 CAR-T cells) | expansion after restimulation with CAR-specific beads (CAR-T cells) | gene expression (RNA-Seq) compared to cells expanded with DMSO vehicle (CD4+ and/or CD8+ T cells) | anti-tumor effects compared to cells produced in the absence of inhibitor (DMSO vehicle) (Raji cells [2]; CAR-T cells generated from another donor) |
| --- | --- | --- | --- | --- | --- | --- | --- | --- |
| CC(C)c1ccccc1-n1c(=O)[nH]c2c(C(N)=O)nc(-c3cccc(O)c3)nc21 [Compound 63, 2-(3-Hydroxyphenyl)-9-(2-isopropylphenyl)-8-oxo-8,9-dihydro-7H-purine-6-carboxamide] | 100% | Reduced tumor burden | substantially improved survival | improvement in vivo anti-tumor responses | larger mean AUC | improved expansion after restimulation | significantly changed gene expression |  |
| Oc1cccc(-c2nc(N3CCOCC3)c3oc4ncccc4c3n2)c1 [PI-103, reference compound] |  | Reduced tumor burden | substantially improved survival |  | larger mean AUC | improved expansion after restimulation | significantly changed gene expression | comparable anti-tumor effects |
